Series [1] deals with HaCaT cells. As to the kind of experiment: Intracellular ROS generation assay (DCFH-DA) with or without UVA irradiation. The format is cell-based, Human. Particulars: UVA irradiation 15 J/cm^2. The protocol:
The in vitro phototoxicity of MK-4 and MKH derivatives were assessed by measuring the intracellular ROS generation and the viability of human epidermal keratinocyte cells (HaCaT) after UVA irradiation in the presence or absence of MK-4 and MKH derivatives. Intracellular ROS generation was determined using the cell permeable probe 2′,7′-dichlorofluorescein diacetate (DCFH-DA), which rapidly reacts with hydroxyl radicals. Cells without drug treatment or UVA irradiation were used as the control. ROS generation and cell viability are shown in Figure 5 and Figure 6, respectively.
Intracellular ROS generation was measured using 2′,7′-dichlorofluorescein diacetate (DCFH-DA; Invitrogen, Carlsbad, CA, USA) as a fluorescent probe. HaCaT cells were seeded at 1.0 × 10^5 cells/well in 96-well plates and cultured overnight. Thereafter, cells were washed with PBS and incubated with 10 µM DCFH-DA solution in PBS at 37 °C for 1 h. Following incubation, test compound solutions in PBS described above were added to each well and re-incubated for 1 h. After incubation, cells were irradiated with UVA at an irradiation intensity of 15 J/cm^2 and the fluorescence intensity (Ex: 485 nm, Em: 530 nm) was measured using an Infinite M200 PRO (Tecan Life Sciences).

Series [2] concerns HaCaT cells. As to the kind of experiment: Intracellular MKO levels after treatment with sunlight-irradiated MK-4 and MKH derivatives. The format is cell-based, Human. Particulars: 48 h treatment, compound irradiated with sunlight 12,000 lx for 3 h. The protocol: To confirm whether MKH prodrugs could successfully deliver MKH to dermal cells under sunlight, the intracellular level of MKO in HaCaT cells was determined following administration of MK-4 and MKH derivatives in the presence or absence of artificial sunlight irradiation. […] MKO levels were increased after administration of MKH-DMG and MKH-SUC in sunlight, but these were approximately 60% that of the cells treated with their respective compounds in shading conditions.
HaCaT cells were seeded at 5.0 × 10^4 cells/well in 24-well plates and allowed to attach for 48 h. Cells were cultured in medium containing 5 µM MK-4, MKH-DMG, or MKH-SUC, then medium was removed and cells were washed twice with PBS. Cells were collected in 500 µL of PBS and sonicated. Cell homogenates were combined with an equal volume of methanol and three times volume of n-hexane, vortexed for 2 min, and centrifuged at 1750× g for 10 min. The organic layer was evaporated under N2 gas. The residue was reconstituted with 20 μL of methanol, and subjected to LC-MS/MS, as described below. The protein concentration of the cell homogenate was determined using a BCA protein assay kit (Thermo Fisher Scientific, Waltham, MA, USA).
Solutions of 200 µM MK-4, MKH-DMG, or MKH-SUC in ethanol were irradiated with artificial sunlight for 3 h at 12,000 lx in quartz cells. After irradiation, ethanol was evaporated under N2 gas. […]

Series [3] is described as follows: Singlet oxygen generation assay (p-nitrosodimethylaniline-based ROS assay) after UVA irradiation. It counts as physicochemical. The note with it: phosphate-buffered aqueous solution pH 7.4, UVA irradiation 0–15 J/cm^2. The protocol: It has been reported that singlet oxygen promotes the peroxidation of skin surface lipids, resulting in the induction of skin inflammation. Thus, we measured the irradiation intensity-dependent generation of singlet oxygen by MK-4, MKH-DMG, and MKH-SUC in phosphate-buffered aqueous solution after UVA irradiation using a p-nitrosodimethylaniline-based ROS assay (Figure 4).
MK-4 and MKH derivatives were dissolved in a phosphate buffer (NaPB, pH 7.4) containing 0.2% polyoxyethylene hydrogenated castor oil 40 (HCO 40, obtained as a gift sample from Nikko Chemicals Co., Ltd., Osaka, Japan), 2% dimethyl sulfoxide, and 0.1% glycerol. The solutions were treated according to the singlet oxygen assay method (The Japanese Center for the Validation of Alternative Methods, JaCVAM) and irradiated with UVA light from a CL-1000L UV Crosslinker (UVP, Upland, CA, USA). Absorbance was measured using an Infinite M200 PRO (Tecan Life Sciences, Zurich, Switzerland).

Structures are written as SMILES.

With `CC(C)=CCC/C(C)=C/CC/C(C)=C/CC/C(C)=C/CC1=C(C)C(=O)c2ccccc2C1=O` [MK-4, menaquinone-4, reference compound], in the series with HaCaT cells [1], the “intracellular ROS level” value is given as “elevated in a dose-dependent manner”. The “intracellular MKO level after sunlight irradiation compared to shade” value with HaCaT cells [2] is “seriously reduced”. Further, the singlet oxygen generation entry in series [3] is reported as “increased formation of singlet oxygen in an irradiation energy-dependent manner”.

The values above are taken from PMC6566782, “Prodrugs for Skin Delivery of Menahydroquinone-4, an Active Form of Vitamin K2(20), Could Overcome the Photoinstability and Phototoxicity of Vitamin K2(20)” (International Journal of Molecular Sciences, 2019).
